Assay results from US20030086902A1, “Cytokine-like peptide” (priority 1999, published 2003).

Experiments:
Assay type in all cases: cell-based
sindbis viruses [1] = assay: antiviral bioassay using FL cells and sindbis viruses
Description: The antiviral activity of the resultant synthetic peptides was inspected by a bioassay method using human amnion-derived FL cells and sindbis viruses (Armstrong, J. A., Methods in Enzymology, 78, 381-387 (1981)). FL cells were inoculated on wells of a 96-well microtiter plate (IWAKI GLASS CO., LTD.) at 3.5×10^5 cells/well and cultured for 24 hours. Thereafter, each peptide was added at the concentration shown in FIG. 3 (0.9 μM to 120 μM) and cultured for 24 hours. […] Thereafter, sindbis viruses were added to each well and cultured for 15 hours. The culture solution was discarded, the plate was immersed in a crystal violet solution containing formalin for about 15 minutes, and living cells were immobilized and stained.
In order to identify an amino acid residue that plays an important role in expressing the antiviral activity of peptide SYR6, 12 types of varied peptides were prepared through chemical synthesis in which each of all the amino acid residues other than alanine of SYR6 were respectively substituted with alanine (peptides were successively designated as N1 to N15 in order from the N-terminus side in accordance with the number of the amino acid residue converted into alanine. Since the fourth, eighth, and ninth residues are alanine, excluding these, a total of 12 types of peptides was prepared). The sequences are shown in the lower part of FIG. 7. […]

sindbis viruses [2] = assay: antiviral activity in the presence of interferon neutralizing antibodies (FL cells, sindbis viruses); settings: MIF-1 (anti-IFN α), YSB-1 (anti-IFN β), anti-IFN γ antibodies added
Description: In order to deny the possibility that the antiviral activity of peptide SYR6 is attained by inducing endogenous production of interferon, the antiviral activity in the presence of various interferon neutralizing antibodies was examined. FL cells were inoculated on wells of a 96-well microtiter plate (IWAKI GLASS CO., LTD.) at 3.5×10^5 cells/well and cultured for 24 hours. Thereafter, peptide SYR6 was added at the concentration shown in FIG. 5 (0.9 μM to 120 μM) and cultured for 24 hours. […] Thereafter, sindbis viruses were added to each well and cultured for 15 hours. In this case also, various neutralizing antibodies were added and cultured under the same conditions as described above. The culture solution was discarded, the plate was immersed in a crystal violet solution containing formalin for about 15 minutes, and living cells were immobilized and stained. […] Therefore, the possibility that the antiviral activity of peptide SYR6 was attained by inducing the production of endogenous interferon was denied.

[3] = system: vesicular stomatitis viruses (VSV); settings: human amnion-derived FL cells

SYR6: synthetic 15-residue peptide with the sequence of phage 6, SEQ ID NO: 1 (SVQARWEAAFDLDLY; Designed peptide based on the DNA sequence of phage binding to monoclonal antibody YSB-2)
antiviral activity of the synthetic peptides (FIG. 3) (sindbis viruses [1]; FL cells, SYR6 HPLC peaks measured separately): activity was recognized
concentration at which the peptide began to exhibit antiviral activity (sindbis viruses [1]; human amnion-derived FL cells, peptide 0.9 μM to 120 μM for 24 hours): 30 µM
antiviral activity in the presence of interferon neutralizing antibodies (sindbis viruses [2]): not affected at all
concentration at which the peptide began to exhibit antiviral activity [3]: 30 µM
